Results reported in patent USRE48335E1, “Polymyxin derivatives as antimicrobial compounds” (priority 2014, dated 2020).
In brackets after ≈: the same amount, converted by molar mass. Where two headings read alike, the source gives them in different places. Positions of bridges follow the written chain, without caps; N, C: chain ends. Non-standard residues stand in square brackets, D forms with d. Residues, ends and D or L forms follow the SMILES beside them. *: point of attachment. Benzoyl(3-Ph) = O=C(c1cccc(-c2ccccc2)c1)*; Octanoyl(6-Me) = CCC(C)CCCCC(=O)*; X16 = O=C(c1cc(F)c(F)c(F)c1)*; Octanoyl = CCCCCCCC(=O)*; Dab = NCC[C@H](N)C(=O)O; Abu = CC[C@H](N)C(=O)O; Dap = NC[C@H](N)C(=O)O; Aib = CC(C)(N)C(=O)O

Legend:
Enterobacter cloacae = system: Enterobacter cloacae
Outline: (§1)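 Minimum inhibitory concentrations come from CLSI-standard broth microdilution in cation-adjusted Mueller-Hinton broth.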

Acinetobacter baumannii = system: Acinetobacter baumannii
Outline: as §1

Klebsiella pneumoniae = system: Klebsiella pneumoniae
Outline: as §1

Pseudomonas aeruginosa = system: Pseudomonas aeruginosa
Outline: as §1

P. aeruginosa ATCC 27853 = assay: In vivo efficacy in mouse blood infection model (neutropenic Swiss mice); settings: compound, free base 4 mg/kg intravenously 2 h after inoculation, blood at 4 h
Outline: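 Neutropenic Swiss mice (cyclophosphamide 150 mg/kg day −4, 100 mg/kg day −1, i.p.) infected i.v. with early log-phase bacteria; 4 mg/kg free base i.v. given 2 h post-inoculation. Blood CFU by cardiac puncture 4 h post-dose; Δlog10 CFU/mL treated versus saline controls.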

Row | SMILES | MIC (Acinetobacter baumannii) [µg/mL] | MIC (Klebsiella pneumoniae) [µg/mL] | MIC (Pseudomonas aeruginosa) [µg/mL] | Δ log (Treated-Control at 4 h) (P. aeruginosa ATCC 27853) [log10 CFU/mL] | Minimum inhibitory concentration (MIC), Ec FADDI-EC001 (Enterobacter cloacae) [µg/mL] | Minimum inhibitory concentration (MIC), Ec FADDI-EC003 (Enterobacter cloacae) [µg/mL] | Minimum inhibitory concentration (MIC), Ec FADDI-EC006 (Enterobacter cloacae) [µg/mL] | Minimum inhibitory concentration (MIC), Ab ATCC 17978 (Acinetobacter baumannii) [µg/mL] | Minimum inhibitory concentration (MIC), Ab ATCC 19606 (Acinetobacter baumannii) [µg/mL] | Minimum inhibitory concentration (MIC), Ab FADDI-AB034 (Acinetobacter baumannii) [µg/mL] | Minimum inhibitory concentration (MIC), Pa ATCC 27853 (Pseudomonas aeruginosa) [µg/mL] | Minimum inhibitory concentration (MIC), Pa FADDI-PA022 (Pseudomonas aeruginosa) [µg/mL] | Minimum inhibitory concentration (MIC), Pa FADDI-PA025 (Pseudomonas aeruginosa) [µg/mL] | further results
1 | CC[C@@H]1NC(=O)[C@@H](CC(C)C)NC(=O)[C@H](CCN)NC(=O)[C@@H](NC(=O)[C@H](CN)NC(=O)[C@@H](NC(=O)[C@H](CCN)NC(=O)c2cc(F)c(F)c(F)c2)[C@@H](C)O)CCNC(=O)[C@H]([C@@H](C)O)NC(=O)[C@H](CCN)NC(=O)[C@H](CCN)NC1=O [Compound 133] (X16-[Dab]T[Dap][Dab][Dab][dL][Abu][Dab][Dab]T; lactam 4-C; N-terminus assumed) | 2 (≈ 1.75 µM) | 0.25 (≈ 0.218 µM) | 0.5 (≈ 0.437 µM) | −3.23 |  |  |  |  |  |  |  |  |  | Minimum inhibitory concentration, Ec FADDI-EC001 (Enterobacter cloacae): 0.5 µg/mL (≈ 0.437 µM); Minimum inhibitory concentration, Ec FADDI-EC003 (Enterobacter cloacae): 0.25 µg/mL (≈ 0.218 µM); Minimum inhibitory concentration, Ec FADDI-EC006 (Enterobacter cloacae): 0.25 µg/mL (≈ 0.218 µM); Minimum inhibitory concentration, Ab A ATCC 17978 (Acinetobacter baumannii): 0.5 µg/mL (≈ 0.437 µM); Minimum inhibitory concentration, Ab ATCC 19606 (Acinetobacter baumannii): 2 µg/mL (≈ 1.75 µM); Minimum inhibitory concentration, Ab FADDI-AB034 (Acinetobacter baumannii): 0.25 µg/mL (≈ 0.218 µM); Minimum inhibitory concentration, Pa ATCC 27853 (Pseudomonas aeruginosa): 0.5 µg/mL (≈ 0.437 µM); Minimum inhibitory concentration, Pa FADDI-PA022 (Pseudomonas aeruginosa): 0.5 µg/mL (≈ 0.437 µM); Minimum inhibitory concentration, Pa FADDI-PA025 (Pseudomonas aeruginosa): 2 µg/mL (≈ 1.75 µM)
2 | CC[C@@H]1NC(=O)[C@@H](CC(C)C)NC(=O)[C@H](CCN)NC(=O)[C@@H](NC(=O)[C@H](CN)NC(=O)[C@@H](NC(=O)[C@H](CCN)NC(=O)c2cccc(-c3ccccc3)c2)[C@@H](C)O)CCNC(=O)[C@H]([C@@H](C)O)NC(=O)[C@H](CCN)NC(=O)[C@H](CCN)NC1=O [Compound 138] ({Benzoyl(3-Ph)}-[Dab]T[Dap][Dab][Dab][dL][Abu][Dab][Dab]T; lactam 4-C) |  |  |  | −2.98 |  |  |  |  |  |  |  |  |  | Minimum inhibitory concentration (MIC), Ec FADDI-EC001 (Enterobacter cloacae; Enterobacter cloacae FADDI-EC001, broth microdilution in CAMHB, TFA salt): 0.5 µg/mL; Minimum inhibitory concentration (MIC), Ec FADDI-EC003 (Enterobacter cloacae; Enterobacter cloacae FADDI-EC003, broth microdilution in CAMHB, TFA salt): 1 µg/mL; Minimum inhibitory concentration (MIC), Ec FADDI-EC006 (Enterobacter cloacae; Enterobacter cloacae FADDI-EC006, broth microdilution in CAMHB, TFA salt): 0.5 µg/mL; MIC (Acinetobacter baumannii; A. baumannii ATCC 19606): 1 µg/mL (≈ 0.857 µM); Minimum inhibitory concentration (MIC), Ab ATCC 17978 (Acinetobacter baumannii; Acinetobacter baumannii ATCC 17978, broth microdilution in CAMHB, TFA salt): 0.5 µg/mL; Minimum inhibitory concentration (MIC), Ab ATCC 19606 (Acinetobacter baumannii; Acinetobacter baumannii ATCC 19606, broth microdilution in CAMHB, TFA salt): 1 µg/mL; Minimum inhibitory concentration (MIC), Ab FADDI-AB034 (Acinetobacter baumannii; Acinetobacter baumannii FADDI-AB034, broth microdilution in CAMHB, TFA salt): 0.5 µg/mL; MIC (Klebsiella pneumoniae; K. pneumoniae FADDI-KP032): 0.5 µg/mL (≈ 0.428 µM); MIC (Pseudomonas aeruginosa; P. aeruginosa ATCC 27853): 1 µg/mL (≈ 0.857 µM); Minimum inhibitory concentration (MIC), Pa ATCC 27853 (Pseudomonas aeruginosa; Pseudomonas aeruginosa ATCC 27853, broth microdilution in CAMHB, TFA salt): 1 µg/mL; Minimum inhibitory concentration (MIC), Pa FADDI-PA022 (Pseudomonas aeruginosa; Pseudomonas aeruginosa FADDI-PA022, broth microdilution in CAMHB, TFA salt): 2 µg/mL; Minimum inhibitory concentration (MIC), Pa FADDI-PA025 (Pseudomonas aeruginosa; Pseudomonas aeruginosa FADDI-PA025, broth microdilution in CAMHB, TFA salt): 1 µg/mL
3 | CCC(C)CCCCC(=O)N[C@@H](CCN)C(=O)N[C@H](C(=O)N[C@@H](CN)C(=O)N[C@H]1CCNC(=O)[C@H]([C@@H](C)O)NC(=O)[C@H](CCN)NC(=O)[C@H](CCN)NC(=O)[C@H](CC)NC(=O)[C@@H](CC(C)C)NC(=O)[C@H](CCN)NC1=O)[C@@H](C)O (stereo partly drawn) [Compound 139] ({Octanoyl(6-Me)}-[Dab]T[Dap][Dab][Dab][dL][Abu][Dab][Dab]T; lactam 4-C) | 0.5 (≈ 0.443 µM) | <0.125 | 1 (≈ 0.887 µM) | −3.19 | 0.5 (≈ 0.443 µM) | 0.25 (≈ 0.222 µM) | 1 (≈ 0.887 µM) | 0.25 (≈ 0.222 µM) | 0.5 (≈ 0.443 µM) | 0.25 (≈ 0.222 µM) | 1 (≈ 0.887 µM) | 2 (≈ 1.77 µM) | 1 (≈ 0.887 µM) | 
4 | CCCCCCCC(=O)N[C@@H](CCN)C(=O)N[C@H](C(=O)N[C@@H](CN)C(=O)N[C@H]1CCNC(=O)[C@H]([C@@H](C)O)NC(=O)[C@H](CCN)NC(=O)[C@H](CCN)NC(=O)C(C)(C)NC(=O)[C@@H](Cc2ccccc2)NC(=O)[C@H](CCN)NC1=O)[C@@H](C)O [Compound 140] (Octanoyl-[Dab]T[Dap][Dab][Dab][dF][Aib][Dab][Dab]T; lactam 4-C) | 2 (≈ 1.74 µM) | 0.25 (≈ 0.218 µM) | 1 (≈ 0.872 µM) | −3.27 | 0.5 (≈ 0.436 µM) | 0.25 (≈ 0.218 µM) | 1 (≈ 0.872 µM) | 0.5 (≈ 0.436 µM) | 2 (≈ 1.74 µM) | 1 (≈ 0.872 µM) | 1 (≈ 0.872 µM) | 1 (≈ 0.872 µM) | 4 (≈ 3.49 µM) | 
